Experimental data as given in US20240400572A1, “COMPOUNDS AND METHODS FOR TREATING CANCERS THAT ARE MGMT DEFICIENT REGARDLESS OF MMR STATUS” (Yale University, priority 2021, published 2024).
Entries after “also recorded” stand apart in the source; their conditions may differ. Where two headings read alike, the source gives them in different places.

What was measured:
[1] = system: four isogenic LN229 glioblastoma cell lines (MGMT+/−, MMR+/−); assay type: cell-based; conditions: for cytotoxicity and selectivity in the four isogenic cell lines (in words): LN229 MGMT+/−, MMR+/− cells; for therapeutic index: IC50 in MGMT proficient and MMR proficient cells divided by IC50 in MGMT deficient and MMR deficient cells (FIG. 8)
Experimental: Short-term Cell Viability Assay. Cells were seeded in 96-well plates at 1000 or 2000 cells/well and allowed to adhere at 23° C. for 60 min and then incubated overnight at 37° C. Cells were treated with indicated concentrations of compounds in triplicate for 4-6 days prior to fixation with 3.7% paraformaldehyde and nuclear staining with 1 μg/mL Hoechst 33342 dye. Cells were imaged on a Cytation 3 imaging reader (BioTek) and quantified using CellProfiler software.
Statistical analysis. Statistical analysis was performed using GraphPad Prism software. Data are presented as mean or median±SD or SEM as indicated. For in vitro short-term growth delay experiments, IC50 values were determined from the nonlinear regression equation, [inhibitor] vs normalized response with variable slope. For micronuclei assays, comparisons were made with one-way ANOVA and Sidak correction for multiple comparisons. For xenograft growth delay experiments, comparisons were made with Mann-Whitney test (for comparison of 2 groups) or Kruskal-Wallis test with FDR-adjusted p-values with Q set to 5% (for comparison of ≥3 groups). For xenograft survival analysis, Kaplan-Meier analysis was used to evaluate survival rate based on death or removal from study when body weight loss exceeded 20% of initial body weight
We synthesized the imidazotetrazine 4a (KL-50) and the triazene 4b (KL-85), as vehicles to deliver 2-fluoroethyl diazonium (4c), and a series of related agents to probe structure-activity relationships in tissue culture (FIG. Z1, D and F). The 2-fluoropropyl- and 3-fluoropropyl-triazenes (10 and 11, respectively) were prepared by diazotization of 4-aminoimdazole-5-carboxamide, followed by the addition of the respective amine. All other triazenes were prepared according to literature procedures. We evaluated the cytotoxicity of our compounds in short-term cell viability assays against four isogenic LN229 glioblastoma cell lines engineered to be proficient or deficient in MGMT and/or MMR activity, using short hairpin RNAs (shRNAs) targeting MSH2 (referred to as MGMT+/−, MMR+/− cells hereafter; FIG. ZS2A). This approach allowed us to rapidly and rigorously interrogate the relationship between MGMT and MMR status and compound activity.
The compounds 10a through 10l and TMZ were tested in the short-term cell viability assay.

[2] = system: LN229 MGMT+/−, MMR+/− cells; test: Cell cycle analysis; assay type: cell-based, human; conditions: 20 μM, 24 to 48 h; cell status given in the value
Experimental: Cell Cycle Analysis. Cell cycle analysis was performed using integrated Hoechst nucleic acid dye fluorescence. Briefly, integrated Hoechst fluorescence intensity was log 2 transformed and histograms from DMSO-treated cells were used to identify the centers of the 2N and 4N DNA peaks. These values were used to normalize the 2N DNA peak to 1 and the 4N DNA peak to 2. Cells were then classified by normalized log 2 DNA content as GI (0.75-1.25), S (1.25-1.75), or G2 (1.75-2.5) phase cells. The percentage of cells within each phase of the cell cycle was determined for each treatment condition. The three sets of Hoechst-stained cells corresponding to the three separate DNA foci stains were treated as three independent analyses.

[3] = system: FANCD2 ubiquitination in LN229 MGMT+/−, MMR+/− cells; test: Western blot analysis of FANCD2 ubiquitination; assay type: cell-based, human
Experimental: FIGS. ZS9A-ZS9G. […] (FIG. ZS9A) Representative images of micronuclei identification. (FIG. ZS9B) Validation of micronuclei identification using olaparib as positive control. Change in percent cells with 1 micronuclei from baseline (DMSO control) after treatment with olaparib ([…]) for 48 h in LN229 MGMT+/−, MMR+/− cells. Columns, mean; error bars, SD; […] technical replicates; **** p<0.0001. […] (FIG. ZS9G) Western blot analysis of FANCD2 ubiquitination in LN229 MGMT+/−, MMR+/− cells and PD20 FANCD2-deficient cells, complemented with empty vector (FANCD2+EV), wildtype FANCD2 (PD20+FD2) or ubiquitination-mutant FANCD2 (PD20+KR). The % FANCD2 ubiquitination (% FANCD2 Ub.) is quantified as the background-corrected integrated band intensity of the upper band divided by the sum of the background-corrected integrated band intensities of the upper and lower bands. The fold change in % FANCD2 ubiquitination is presented for each cell line relative to DMSO-treated cells. Vinculin serves as loading control. For (FIG. ZS9D), (FIG. ZS9E), and (FIG. ZS9F), points, mean; error bars, SD; n=3 technical replicates.
Western Blotting. […] Where shown, bands were quantified using ImageJ software.

| SMILES | cytotoxicity and selectivity in the four isogenic cell lines (in words) ([1]; listed as N-methyl KL50) | therapeutic index [1] | cell cycle arrest (in words) [2] | FANCD2 ubiquitination (in words) [3] | selectivity for MGMT-deficient cells ([1]; LN229 MGMT+ versus MGMT− cells) [fold] | cytotoxicity and selectivity in the four isogenic cell lines (in words) [1] | cytotoxicity and selectivity in the four isogenic cell lines (in words) ([1]; listed as 4a) |
| --- | --- | --- | --- | --- | --- | --- | --- |
| CNC(=O)c1ncn2c(=O)n(CCF)nnc12 [Compound I-1, 3-(2-fluoroethyl)-N-methyl-4-oxo-3H,4H-imidazo[4,3-d][1,2,3,5]tetrazine-8-carboxamide] | comparable to those for KL50 itself; also recorded: preferable toxicity for MGMT− cells compared to MGMT^+ cells, regardless of MMR status |  |  |  |  |  |  |
| Cn1nnc2c(C(N)=O)ncn2c1=O [TMZ, temozolomide, reference compound] |  | less than one | This effect in MGMT−/MMR− cells was absent; also recorded: moderate G2 arrest in MGMT+/MMR+ cells | induced FANCD2 ubiquitination but only in MGMT−/MMR+ cells |  |  |  |
| NC(=O)c1ncn2c(=O)n(CCF)nnc12 [KL-50, 3-(2-fluoroethyl)-4-oxo-3H,4H-imidazo[4,3-d][1,2,3,5]tetrazine-8-carboxamide] |  | 26.64 | increasing G2 arrest on progression from 24 to 48 h in MGMT−/MMR+ cells; also recorded: attenuated G2 arrest in MGMT−/MMR− cells; also recorded: moderate G2 arrest in MGMT+/MMR+ cells | specifically in MGMT− cells | ~25 | preferable toxicity for MGMT− cells compared to MGMT^+ cells, regardless of MMR status | mirrored that of 4b |
